Reference: ChEMBL document CHEMBL1147310, “Anti-inflammatory compounds from Sideritis javalambrensis n-hexane extract” (1989)
Activity calls are given as the source filed them. The calls are words filed in the database; no cut-off is given here.

How the values were obtained:
Mus musculus [1] = experiment: Antiinflammatory activity in albino mouse assessed as inhibition of carrageenan-induced paw edema at 100 mg/kg, po administered 1 hr before carrageenan challenge measured after 3 hrs; assay type: functional
Mus musculus [2] = experiment: Antiinflammatory activity in albino mouse assessed as inhibition of carrageenan-induced paw edema at 75 mg/kg, ip administered 1 hr before carrageenan challenge measured after 3 to 7 hrs; assay type: functional; details: route intraperitoneal
Mus musculus [3] = experiment: Antiinflammatory activity in albino mouse assessed as inhibition of carrageenan-induced paw edema at 80 mg/kg, ip administered 1 hr before carrageenan challenge measured after 3 hrs; assay type: functional; details: route intraperitoneal
Mus musculus [4] = experiment: Antiinflammatory activity in albino mouse assessed as inhibition of carrageenan-induced paw edema at 125 mg/kg, po administered 1 hr before carrageenan challenge measured after 3 to 7 hrs; assay type: functional, organism-based; design: dose 125 mg/kg
Mus musculus [5] = experiment: Antiinflammatory activity in albino mouse assessed as inhibition of carrageenan-induced paw edema at 250 mg/kg, po administered 1 hr before carrageenan challenge measured after 3 hrs; assay type: functional
Mus musculus [6] = experiment: Antiinflammatory activity in po dosed albino mouse assessed as inhibition of carrageenan-induced paw edema administered 1 hr before carrageenan challenge measured; assay type: functional, organism-based

SMILES	inhibition in vivo at 100 mg/kg (Mus musculus [1]) [%]	inhibition in vivo at 75 mg/kg (Mus musculus [2]) [%]	inhibition in vivo at 80 mg/kg (Mus musculus [3]) [%]	Activity (Mus musculus [4])	inhibition in vivo at 250 mg/kg (Mus musculus [5]) [%]	Activity (Mus musculus [6])
CCCCC1C(=O)N(c2ccccc2)N(c2ccccc2)C1=O [PHENYLBUTAZONE]	47.7					
C=C[C@@]1(CO)CC[C@H]2[C@]3(C)CCCC(C)(C)[C@H]3CC[C@]2(C)O1		60.1	63.5	Active	55.8	Dose-dependent effect
